How the values were obtained:
Type in all cases: cell-based
[1] = tested on: Candida albicans (ATCC 10231); assay: MIC and MBC determination (broth dilution)
Protocol: (§1) The determination of the MIC and MBC of 9-decenoic acid conformed to the procedure printed in the Federal Register, June 1994 and the present NCCLS M11-A4 protocol. Challenge organisms were prepared as follows. The MIC and MBC of 9-decenoic acid and the methyl ester of 9-decenoic acid were determined for the following challenge organisms: Staphylococcus aureus (ATCC 6538), Pseudomonas aeruginosa (ATCC 15442), Staphylococcus epidermidis (ATCC 12228), Klebsiella pneumoniae (ATCC 4352), Escherichia coli 0157:H7 (ATCC 43895) and Candida albicans (ATCC 10231). Stock cultures of each organism were transferred onto suitable culture media, Mueller-Hinton Agar (MHA) plates, and incubated for 24 hours (+2 hours) at 37° C. (+2° C.). On the day of the test, the top of at least three to five well-isolated colonies were transferred via wire loop to a tube containing 4 to 5 ml of Trypticase Soy Broth (TSB). The TSB culture was incubated for 2 to 6 hours and turbidity was adjusted with sterile saline to achieve the turbidity of a McFarland 0.5 Standard.
(§2) The concentrated 9-decenoic acid (97%) was diluted in Mueller-Hinton Broth (MHB) to yield a 25,000 ppm stock solution of the 9-decenoic acid. For each organism, 12 dilutions of the 9-decenoic acid in MHB were prepared ranging from 0.25% to 0.00049%. The test solution of the methyl ester of 9-decenoic acid was formulated in the same manner.
(§3) A 2-ml aliquot of appropriately diluted 9-decenoic acid solution or methyl ester of 9-decenoic acid was placed in each tube. Each tube was inoculated with 0.05 ml of a 1:10 dilution of one challenge organism. Tubes were incubated at 37° C. (±2° C.) for 20-24 hours and observed for microbial growth visually and by spectrophotometer. […] (±2° C.) for 20-24 hours and visually observed for growth.
(§4) Controls were run for sterility, viability and organism confirmation. It was determined that all cultures were viable and pure.
(§5) The MBC was defined as the concentration of 9-decenoic acid or the methyl ester of 9-decenoic acid that completely eradicated viable organisms from the test system.

[2] = tested on: Klebsiella pneumoniae (ATCC 4352); assay: MIC and MBC determination (broth dilution); settings: Mueller-Hinton Broth, 20-24 h, 37° C.
Protocol: as §1, §2, §3, §4, §5

[3] = tested on: Pseudomonas aeruginosa (ATCC 15442); assay: MIC and MBC determination (broth dilution); settings: Mueller-Hinton Broth, 20-24 h, 37° C.
Protocol: as §1, §2, §3, §4, §5

[4] = tested on: Escherichia coli 0157:H7 (ATCC 43895); assay: Time-kill determination
Protocol: The assessment of efficacy of 9-decenoic acid against a spectrum of microorganisms was determined using the American Society for Testing and Materials (ASTM) procedure entitled “Standard Test Method for the Assessment of Microbiocidal Activity of Test Materials Using a Time-Kill Procedure,” October 1998. This procedure incorporates the recommendations described in the “Manual of Clinical Microbiology,” 5th ed., edited by A. B. Balows et al., ASM, Washington, and is directed by the Federal Register, June 1994.
Challenge organisms were prepared as follows. Cultures of the following organisms were obtained: Staphylococcus aureus (ATCC 6538), Pseudomonas aeruginosa (ATCC 15442), Staphylococcus epidermidis (ATCC 12228), Klebsiella pneumoniae (ATCC 4352), Escherichia coli 0157:H7 (ATCC 43895) and Candida albicans (ATCC 10231). The stock cultures were transferred to sterile tubes and sterile tryptic soy broth (TSB) was added to the cultures. The mixture was incubated for 18-24 hours at 37° C. (±2° C.). A portion of this culture was then transferred onto TSA plates and incubated for 18-24 hours at 37° C. (±2° C.). The plates were removed from incubation and the bacterial growth was washed from the agar surface using Butterfield's Phosphate Buffered Dilution Water (PBDW).
The bacterial suspension was adjusted to contain approximately 10^8 Colony Forming Units (CFU) per ml with PBDW. The concentration was adjusted to an optical density (OD) of 0.4-0.5 (versus a PBDW blank) at 620 nm in a UV-Vis spectrophotometer, and this optical density gave approximately 10^8 colony forming units per milliliter (cfu/ml). The standardized suspension was stored under appropriate conditions until it was used as the challenge inoculum.
Concentrated 9-decenoic acid (97%) was diluted in filter sterilized isopropanol to yield a 25,000 ppm stock solution. Subsequent dilutions to the 9-decenoic acid stock solutions were made with sterile Deionized Water (DI) to achieve concentrations of 0.1%, 0.05%, 0.01% and 0.001%. The pH was determined for each dilution; pH values ranged from 4.4-4.1. […] In addition, 9-decenoic acid stock solution was combined with Triclosan™ (obtained from Ciba Specialty Chemical Corporation, under the tradename Irgasan DP 300™) in various ratios, as indicated in Table 8. The pH of the combined solution was 7.
Compliant with the ASTM procedure cited, for each challenge microorganism a 9.9 ml aliquot of the prepared 9-decenoic acid suspension was added to a sterile tube. A 0.1 ml aliquot of the standardized inoculum was added to the 9-decenoic acid solution representing the start of the test exposure. The inoculated 9-decenoic acid solution was immediately mixed thoroughly. The inoculated suspension was held at room temperature for 0.5, 2, 5, 7 and 10-minute exposure times for tests run at pH level of approximately 4. The pH 7 tests were held at room temperature for 0.5 and 2 minutes.
At each exposure sample time, a 1.0 ml aliquot of the inoculated 9-decenoic acid suspension was transferred to 9.0 ml of D/E Neutralizing Broth. Additional ten-fold serial dilutions were made in PBDW and plated in duplicate on TSA. All plates were incubated for 48 hours at 37° C. (±2° C.) and visually examined for growth. The plates were enumerated, recorded and log kill determined for each time point.
The following study controls were conducted: culture purity, neutralizer sterility, initial suspension population, test population, neutralization verification and a negative control using isopropanol. Culture purity was verified by performing a streak plate for isolated colonies of each culture used. All cultures were determined to be pure based on consistent colony morphology typical for the test organism. The neutralizer sterility was confirmed by no growth in an incubated sample.
The populations of the initial and test culture were determined by serial dilution, plating and enumerating after incubation. The initial suspension were determined to be ≧10^4 CFU/ml. […]

For `C=CCCCCCCCC(=O)O` [9-decenoic acid], the MIC ([1]; Mueller-Hinton Broth, 20-24 h, 37° C.) was 0.0625%, the MBC ([1]; subculture on TSA) was 0.0625% and the MIC [2] was 0.0625%. It also gave an MIC [3] of 0.0625%, a Log reduction ([4]; 0.01% 9-decenoic acid, pH 4.4, exposure 0.5 min) of 1.3 log and a Log reduction ([4]; 0.01% 9-decenoic acid, pH 4.4, exposure 2 min) of 1.6 log. For the same compound, the Log reduction ([4]; 0.01% 9-decenoic acid, pH 4.4, exposure 5 min) was 2.2 log, the Log reduction ([4]; 0.01% 9-decenoic acid, pH 4.4, exposure 7 min) was 1.8 log and the Log reduction ([4]; 0.01% 9-decenoic acid, pH 4.4, exposure 10 min) was 2.7 log. The Log reduction ([4]; 0.05% 9-decenoic acid, pH 4.1, exposure 0.5 min) was over 6.2 log, the Log reduction ([4]; 0.05% 9-decenoic acid, pH 4.1, exposure 2 min) was over 6.2 log and the Log reduction ([4]; 0.05% 9-decenoic acid, pH 4.1, exposure 5 min) was over 6.2 log. The Log reduction ([4]; 0.05% 9-decenoic acid, pH 4.1, exposure 7 min) was over 6.2 log, the Log reduction ([4]; 0.05% 9-decenoic acid, pH 4.1, exposure 10 min) was over 6.2 log and the Log reduction ([4]; 0.05% 9-decenoic acid, pH 7, exposure 0.5 min) was 0 log. The Log reduction ([4]; 0.05% 9-decenoic acid, pH 7, exposure 2 min) was 0 log, the Log reduction ([4]; 0.1% 9-decenoic acid, pH 4.1, exposure 0.5 min) was over 6.2 log and the Log reduction ([4]; 0.1% 9-decenoic acid, pH 4.1, exposure 2 min) was over 6.2 log. For the same compound, the Log reduction ([4]; 0.1% 9-decenoic acid, pH 4.1, exposure 5 min) was over 6.2 log, the Log reduction ([4]; 0.1% 9-decenoic acid, pH 4.1, exposure 7 min) was over 6.2 log and the Log reduction ([4]; 0.1% 9-decenoic acid, pH 4.1, exposure 10 min) was over 6.2 log. For the same compound, the “Enhancement of disinfectant activity of marginally-effective concentrations of Triclosan” value ([4]; 0.5% 9-decenoic acid added to Triclosan, pH 7) was 1-2 log reductions, the Log reduction ([4]; 0.5% 9-decenoic acid, pH 7, exposure 0.5 min) was 0 log and the Log reduction ([4]; 0.5% 9-decenoic acid, pH 7, exposure 2 min) was 0 log. The Log reduction ([4]; 0.75% 9-decenoic acid, pH 7, exposure 0.5 min) was 0.83 log, the Log reduction ([4]; 0.75% 9-decenoic acid, pH 7, exposure 2 min) was over 4.2 log and the Log reduction ([4]; 1% 9-decenoic acid, pH 7, exposure 0.5 min) was over 4.2 log. It also gave a Log reduction ([4]; 1% 9-decenoic acid, pH 7, exposure 2 min) of over 4.2 log.
